In PMC7167990, “Therapeutic Effects of Atranorin towards the Proliferation of Babesia and Theileria Parasites” (Pathogens, 2020):

How the values were obtained:
T. equi = assay: Parasite viability test in vitro (regrowth after drug withdrawal, microscopy); format: cell-based; parameters: key: a positive (+) indicates parasites regrowth; a negative (–) shows the parasites total clearance after drug pressure withdrawal using microscopy assay; settings: 4 days treatment, then drug-free culture
Description: (§1) The viability studies of ATR-treated parasites were monitored via microscopy as reported elsewhere. In a 96-well microtiter plate, an aliquot of 1% parasitemia (10 µL) of iRBCs was cultivated with 90 µL of respective media containing various concentrations of ATR and DA for 4 successive days with changing media daily. […] On the fifth day, a mixture of iRBCs (3 µL) from each well and fresh equine or bovine RBCs (7 µL) was transferred to another plate, cultured in a medium free from drug and then left for an additional six days. The total parasite clearance was recorded as negative, while the relapse of parasites was recorded as positive.

B. divergens = assay: as above; format: cell-based; parameters: key: a positive (+) indicates parasites regrowth; a negative (–) shows the parasites total clearance after drug pressure withdrawal using microscopy assay; settings: 4 days treatment, then drug-free culture
Description: as §1

B. caballi = assay: as above; format: cell-based; parameters: key: a positive (+) indicates parasites regrowth; a negative (–) shows the parasites total clearance after drug pressure withdrawal using microscopy assay; settings: 4 days treatment, then drug-free culture
Description: as §1

B. bovis [1] = assay: as above; format: cell-based; parameters: key: a positive (+) indicates parasites regrowth; a negative (–) shows the parasites total clearance after drug pressure withdrawal using microscopy assay; settings: 4 days treatment, then drug-free culture
Description: as §1

[2] = test system: bovine RBCs (B. divergens); assay: Impact of ATR pretreatment of bovine RBCs on later parasite proliferation; format: cell-based; settings: 400 µM ATR for 3 and 6 h, then B. divergens subculture
Description: (§2) Prior to parasite subculture, a concentration of 400 µM of ATR was mixed with fresh bovine and equine RBCs and incubated at a humidified incubator for 3 and 6 h. Afterward, the pretreated-RBCs were mixed with B. divergens and T. equi infected RBCs (iRBCs) after washing thrice with PBS to achieve 1% parasitemia. Thereafter, using a 24-well plate, an aliquot of iRBCs (100 μL) was mixed with culture media (900 μL); the control RBCs were left untreated. To monitor the parasitemia and any side effects due to the pretreatment, Giemsa-stained smears were prepared every 24 h for four days.

hepatitis C virus (HCV) = test system: hepatitis C virus (HCV); parameters: method as in PMID 25793970; settings: antiviral activity against hepatitis C virus (HCV); cited from earlier work
Plasmodium species = test system: Plasmodium species; parameters: method as in earlier work; settings: ATR combined with quinine; cited from earlier work
equine RBCs (T. equi) = assay: Impact of ATR pretreatment of equine RBCs on later parasite proliferation; format: cell-based; settings: 400 µM ATR for 3 and 6 h, then T. equi subculture
Description: as §2

B. bovis [3] = assay: In vitro growth inhibition, Babesia fluorescent (SYBR Green I) assay; format: cell-based; settings: 4 days culture, mean of triplicate experiments
B. bigemina = assay: as above; format: cell-based; settings: 4 days culture, mean of triplicate experiments
[4] = test system: LLC/MK2 monkey kidney epithelial cells; parameters: method as in PMID 21487780; settings: cited from earlier work

In the case of `COC(=O)c1c(C)cc(OC(=O)c2c(C)cc(O)c(C=O)c2O)c(C)c1O` [ATR, Atranorin], the Viability (T. equi; A1 = 0.25× IC50, 17.8 µM) is reported as “+”, the Viability (T. equi; A2 = 0.5× IC50, 35.6 µM) is reported as “+” and the Viability (T. equi; A3 = 1× IC50, 71.3 µM) is reported as “+”. The Viability (T. equi; A4 = 2× IC50, 142.6 µM) was “+”, the Viability (T. equi; A5 = 4× IC50, 285.2 µM) was “+” and the Viability (T. equi; A6 = 6× IC50, 427.8 µM) was “suppressed and –”. The Viability (B. divergens; A1 = 0.25× IC50, 11.3 µM) was “+”, the Viability (B. divergens; A2 = 0.5× IC50, 22.6 µM) was “+” and the Viability (B. divergens; A3 = 1× IC50, 45.2 µM) was “+”. The Viability (B. divergens; A4 = 2× IC50, 90.4 µM) was “+”, the Viability (B. divergens; A5 = 4× IC50, 180.8 µM) was “cleared and did not revive and –” and the Viability (B. divergens; A6 = 6× IC50, 271.2 µM) was “–”. The Viability (B. caballi; A1 = 0.25× IC50, 11.65 µM) was “+”, the Viability (B. caballi; A2 = 0.5× IC50, 23.3 µM) was “+” and the Viability (B. caballi; A3 = 1× IC50, 46.6 µM) was “+”. For the same molecule, the Viability (B. caballi; A4 = 2× IC50, 93.2 µM) was “completely suppressed and did not revive and –”, the Viability (B. caballi; A5 = 4× IC50, 186.4 µM) was “–” and the Viability (B. caballi; A6 = 6× IC50, 279.6 µM) was “–”. For the same molecule, the Viability (B. bovis [1]; A1 = 0.25× IC50, 24.6 µM) was “+”, the Viability (B. bovis [1]; A2 = 0.5× IC50, 49.2 µM) was “+” and the Viability (B. bovis [1]; A3 = 1× IC50, 98.4 µM) was “+”. The Viability (B. bovis [1]; A4 = 2× IC50, 196.8 µM) was “completely suppressed and did not revive and –”, the Viability (B. bovis [1]; A5 = 4× IC50, 393.6 µM) was “–” and the Viability (B. bovis [1]; A6 = 6× IC50, 590.4 µM) was “–”. The “parasite proliferation in ATR-pretreated RBCs versus untreated RBCs” value [2] was “did not show a significant difference”, the IC50 (hepatitis C virus (HCV)) was 22300 ± 8000 nM and the “combined treatment efficacy with quinine” value (Plasmodium species) was “slight antagonistic efficacy”. The “parasite proliferation in ATR-pretreated RBCs versus untreated RBCs” value (equine RBCs (T. equi)) was “did not show a significant difference”, the IC50 (B. bovis [3]; Bos taurus, 96 h) was 98400 ± 4200 nM and the IC50 (B. bigemina; 96 h) was 64500 ± 3900 nM. The cytotoxic action [4] was “mild cytotoxic action”.
Work on `O=C1C(O)=C([C@H]2CC[C@H](c3ccc(Cl)cc3)CC2)C(=O)c2ccccc21` [AV, atovaquone] yielded an IC50 (B. bovis [3]; Bos taurus, 96 h) of 40 nM and an IC50 (B. bigemina; 96 h) of 700 ± 40 nM.
`CC(=O)NCC(=O)O.CC(=O)NCC(=O)O.N=C(N)c1ccc(N=NNc2ccc(C(=N)N)cc2)cc1` [DA, diminazene aceturate] showed an IC50 (B. bovis [3]) of 350 ± 60 nM and an IC50 (B. bigemina) of 680 ± 90 nM.
